Experimental data: patent US12421253B2 (Mirati Therapeutics, Inc., priority 2020, dated 2025)

Key:
KRas^G12D = molecular target: T1, KRas^G12D (Homo sapiens, UniProt P01116, G12D); test: KRas binding assay (TR-FRET displacement of Cy5 labelled tracer)
T1 construct: […]; biotin (biotinylated); purchased Accelegan Inc
Description: (§4) The ability of a compound to bind to KRas was measured using a TR-FRET displacement assay. […] After a 60-minute incubation at room temperature, the reaction was measured using a BMG LABTECH CLARIO star Plus via TR-FRET. […] The POC values were fit to a 4-parameter IC50 equation and the IC50 value reported.

KRas^G12R = molecular target: T2, KRas^G12R (Homo sapiens, UniProt P01116, G12R); test: as above
T2 construct: […]; biotin (biotinylated); purchased Accelegan Inc
Description: as §4

KRas^G12V = molecular target: T3, KRas^G12V (Homo sapiens, UniProt P01116, G12V); test: as above
T3 construct: […]; biotin (biotinylated); purchased Accelegan Inc
T3 sequence (P01116 1-169 isoform P01116-2 G12V): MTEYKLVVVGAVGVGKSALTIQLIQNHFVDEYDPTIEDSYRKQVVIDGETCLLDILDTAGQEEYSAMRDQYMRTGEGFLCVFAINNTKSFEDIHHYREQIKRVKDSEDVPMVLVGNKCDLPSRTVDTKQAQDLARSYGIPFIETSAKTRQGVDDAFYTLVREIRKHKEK
Description: as §4

PSN1 cells, pERK = test: Inhibition of KRas phosphorylation of ERK (Cisbio HTRF Advanced pERK assay); assay type: cell-based; conditions: Homo sapiens, PSN1, 3 h, read-out: Inhibition (HTRF IC50 nM) of KRas-mediated Phosphorylation of ERK, PSN1
Description: (§1) Inhibition of KRas Phosphorylation of ERK (HTRF) by Exemplary Compounds of Formula (I)
(§2) Cisbio HTRF Advanced pERK Assay Catalog #64AERPEH
(§3) • Day 1: Seed 6,000 cells/well −25 μl/well in 384-well white solid bottom plate; RPM1_10% FBS. […] To harvest cells from flask using 0.05% Trypsin/EDTA solution. Add 10 mL of media to stop trypsinizing. Pipette the cells into a conical bottom 50 mL centrifuge tube and centrifuge 5 min×1000 rpm. • 2. Re-suspend the cell pellet in media, take a cell count, and then adjust the cell density using fresh media. • 3. Seed 6,000 cells into cell culture plate with […]. The • 4. Incubate cell plate overnight in a 37° C., 5% CO2 incubator. Compound Titrations • 1. Use Tecan to complete the compound addition. Compounds start from 10 uM top, 3-fold dilution, and 10 doses. The final DMSO concentration is 0.8%. Dispensed 0.2 uM Trametinib as Min control. • 2. Incubate cell plate for 3 hrs in the incubator. Detection with Cisbio pERK HTRF Kit • 1. Dilute 1 volume of 4× lysis buffer with 3 volumes of deionized water. Then, add 100× the blocking reagent. Keep lysis buffer on the ice. • 2. At the end of the compound treatment, flick-off the media. • 3. Add 35 μL of lysis buffer per well using a Multidrop Combi. Then place on a plate agitator shaking at 300 rpm at 4° C. for 40 mins. • 4. Make up the HTRF antibody buffer. For each assay plate, mix 50 μL of d2-conjugate antibody with 950 μL of detection buffer. Similarly, mix 50 μL of Cryptate antibody with 950 μL of detection buffer. Then mix the two diluted antibodies together. • 5. Dispense 3.4 μL the antibody buffer to wells of an empty assay plate. Seal the plate and centrifuge plate 30 sec×1000 rpm. • 6. At the end of the 4° C. lysis, centrifuge the lysate plates 3 mins×1500 rpm. • 7. Use the Bravo to transfer 13.6 μL of lysate from cell culture plate to assay plate. Then incubate assay plate for 2 hrs at room temperature. • 8. At the end of incubation, read plate on the Envision after centrifuging plate 30 sec×1000 rpm.

ASPC1 cells, pERK = test: as above; assay type: cell-based; conditions: Homo sapiens, ASPC1, 3 h, AsPC-1 cells, read-out: Inhibition (HTRF IC50 nM) of KRas-mediated Phosphorylation of ERK, AsPC-1
Description: as §1, §2, §3

H727 cells, pERK = test: as above; assay type: cell-based; conditions: Homo sapiens, NCI-H727, 3 h, read-out: Inhibition (HTRF IC50 nM) of KRas-mediated Phosphorylation of ERK, H727
Description: as §1, §2, §3

MKN1 cells, pERK = test: as above; assay type: cell-based; conditions: Homo sapiens, MKN-1, 3 h, read-out: Inhibition (HTRF IC50 nM) of KRas-mediated Phosphorylation of ERK, MKN1
Description: as §1, §2, §3

T1 sequence (P01116 1-169 isoform P01116-2 G12D): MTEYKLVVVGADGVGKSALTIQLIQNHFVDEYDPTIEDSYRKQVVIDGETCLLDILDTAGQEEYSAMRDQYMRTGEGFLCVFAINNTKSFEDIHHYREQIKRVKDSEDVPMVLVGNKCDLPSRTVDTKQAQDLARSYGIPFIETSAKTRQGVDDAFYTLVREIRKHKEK
T2 sequence (P01116 1-169 isoform P01116-2 G12R): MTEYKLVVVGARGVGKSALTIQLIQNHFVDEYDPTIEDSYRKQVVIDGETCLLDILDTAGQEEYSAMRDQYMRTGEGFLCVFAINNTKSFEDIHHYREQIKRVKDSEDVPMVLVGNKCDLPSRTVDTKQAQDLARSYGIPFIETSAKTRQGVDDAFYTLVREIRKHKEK

SMILES | IC50 (KRas^G12D) [nM] | IC50 (KRas^G12R) [nM] | IC50 (KRas^G12V) [nM] | IC50 (PSN1 cells, pERK) [nM] | IC50 (ASPC1 cells, pERK) [nM] | IC50 (H727 cells, pERK) [nM] | IC50 (MKN1 cells, pERK) [nM]
Oc1cc(N2CCc3c(nc(OC[C@@]45CCCN4C[C@H](F)C5)nc3N3CC4CC(O)CC3C4)C2)c2c(Cl)c(F)ccc2c1 (single isomer, unassigned) [Example 76] | 37 | 7 | 7 | 5630 |  |  | 
Oc1cc(N2CCc3c(nc(OC[C@@]45CCCN4C[C@H](F)C5)nc3N3CC4CC(O)CC3C4)C2)c2c(Br)c(F)ccc2c1 (single isomer, unassigned) [Example 213] | 11 | 3 | 3 | 6500 |  |  | 
Oc1cc(N2CCc3c(nc(OC[C@@]45CCCN4C[C@H](F)C5)nc3N3CCCC4(CC(O)C4)C3)C2)c2c(Cl)c(F)ccc2c1 (stereo partly drawn) [Example 71, 6-(7-(8-chloro-7-fluoro-3-hydroxynaphthalen-1-yl)-2-(((2R,7aS)-2-fluorohexahydro-1H-pyrrolizin-7a-yl)methoxy)-5,6,7,8-tetrahydropyrido[3,4-d]pyrimidin-4-yl)-6-azaspiro[3.5]nonan-2-ol] | 4 | ≤ 2 | ≤ 2 | 6040 | 1170 | 848 | 211
OCC1COCCN(c2nc(OC[C@@]34CCCN3C[C@H](F)C4)nc3c2CCN(c2cc(O)cc4ccc(F)c(Cl)c24)C3)C1 (stereo partly drawn) [Example 73, 5-chloro-6-fluoro-4-(2-(((2R,7aS)-2-fluorohexahydro-1H-pyrrolizin-7a-yl)methoxy)-4-(6-(hydroxymethyl)-1,4-oxazepan-4-yl)-5,6-dihydropyrido[3,4-d]pyrimidin-7(8H)-yl)naphthalen-2-ol] | 5 | 3 | 3 | 6380 | 661 | 871 | 85
CCc1c(F)ccc2cc(O)cc(N3CCc4c(nc(OC[C@@]56CCCN5C[C@H](F)C6)nc4N4CC5CC(O)C5C4)C3)c12 (stereo partly drawn) [Example 177, 3-(7-(8-ethyl-7-fluoro-3-hydroxynaphthalen-1-yl)-2-(((2R,7aS)-2-fluorohexahydro-1H-pyrrolizin-7a-yl)methoxy)-5,6,7,8-tetrahydropyrido[3,4-d]pyrimidin-4-yl)-3-azabicyclo[3.2.0]heptan-6-ol] | 19 | 15 | 9 | ≥ 10000 | 1310 | 1380 | 479
CCc1c(F)ccc2cc(O)cc(N3CCc4c(nc(OC[C@@]56CCCN5C[C@H](F)C6)nc4N4CCCn5nncc5C4)C3)c12 [Example 178, 4-(4-(7,8-dihydro-4H-[1,2,3]triazolo[1,5-a][1,4]diazepin-5(6H)-yl)-2-(((2R,7aS)-2-fluorotetrahydro-1H-pyrrolizin-7a(5H)-yl)methoxy)-5,8-dihydropyrido[3,4-d]pyrimidin-7(6H)-yl)-5-ethyl-6-fluoronaphthalen-2-ol] | ≤ 2 | ≤ 2 | ≤ 2 | 7620 | 17 | 68 | 20
CCc1c(F)ccc2cc(O)cc(N3CCc4c(nc(OC[C@@]56CCCN5C[C@H](F)C6)nc4N4CC5CC(O)CC(C5)C4)C3)c12 (stereo partly drawn) [Example 179, 3-(7-(8-ethyl-7-fluoro-3-hydroxynaphthalen-1-yl)-2-(((2R,7aS)-2-fluorohexahydro-1H-pyrrolizin-7a-yl)methoxy)-5,6,7,8-tetrahydropyrido[3,4-d]pyrimidin-4-yl)-3-azabicyclo[3.3.1]nonan-7-ol] | 207 | 80 | 101 | ≥ 10000 | 5170 | 4790 | 1210
CCc1c(F)ccc2cc(O)cc(N3CCc4c(nc(OC[C@@]56CCCN5C[C@H](F)C6)nc4N4CCCc5nc(N)sc5C4)C3)c12 [Example 181, 4-(4-(2-amino-7,8-dihydro-4H-thiazolo[5,4-c]azepin-5(6H)-yl)-2-(((2R,7aS)-2-fluorohexahydro-1H-pyrrolizin-7a-yl)methoxy)-5,6-dihydropyrido[3,4-d]pyrimidin-7(8H)-yl)-5-ethyl-6-fluoronaphthalen-2-ol] | ≤ 2 | ≤ 2 | ≤ 2 | ≥ 10000 | 228 | 191 | 90
CCc1c(F)ccc2cc(O)cc(N3CCc4c(nc(OC[C@@]56CCCN5C[C@H](F)C6)nc4N4C[C@H]5CC[C@H](O)[C@H]5C4)C3)c12 [Example 182, (3aR,4S,6aS)-2-(7-(8-ethyl-7-fluoro-3-hydroxynaphthalen-1-yl)-2-(((2R,7aS)-2-fluorohexahydro-1H-pyrrolizin-7a-yl)methoxy)-5,6,7,8-tetrahydropyrido[3,4-d]pyrimidin-4-yl)octahydrocyclopenta[c]pyrrol-4-ol] | 209 | 118 | 75 | ≥ 10000 | 3920 | 4660 | 1300
CN1CCC[C@H]1COc1nc2c(c(N3CCCC4(CNS(=O)(=O)N4)C3)n1)CCN(c1cccc3cccc(Cl)c13)C2 (stereo partly drawn) [Example 208, 9-[7-(8-chloro-1-naphthyl)-2-[[(2S)-1-methylpyrrolidin-2-yl]methoxy]-6,8-dihydro-5H-pyrido[3,4-d]pyrimidin-4-yl]-2λ6-thia-1,3,9-triazaspiro[4.5]decane 2,2-dioxide] | 136 | 350 | 197 |  | 4050 | 6940 | 
CN(C)C(=O)c1cc2n(n1)CCCN(c1nc(OC[C@@H]3CCCN3C)nc3c1CCN(c1cccc4cccc(Cl)c14)C3)C2 [Example 209, (S)-5-(7-(8-chloronaphthalen-1-yl)-2-((1-methylpyrrolidin-2-yl)methoxy)-5,6,7,8-tetrahydropyrido[3,4-d]pyrimidin-4-yl)-N,N-dimethyl-5,6,7,8-tetrahydro-4H-pyrazolo[1,5-a][1,4]diazepine-2-carboxamide] | 1120 | 4140 | 1900 |  | 7200 | 8520 | 
CN1CCC[C@H]1COc1nc2c(c(N3CCCC4(CNC(=O)N4)C3)n1)CCN(c1cccc3cccc(Cl)c13)C2 (stereo partly drawn) [Example 210, 7-(7-(8-chloronaphthalen-1-yl)-2-(((S)-1-methylpyrrolidin-2-yl)methoxy)-5,6,7,8-tetrahydropyrido[3,4-d]pyrimidin-4-yl)-1,3,7-triazaspiro[4.5]decan-2-one] | 579 | 699 | 497 |  | ≥ 10000 | ≥ 10000 | 
CN1CCC[C@H]1COc1nc2c(c(N3CCCC4(C3)NC(=O)NC4=O)n1)CCN(c1cccc3cccc(Cl)c13)C2 (stereo partly drawn) [Example 211, 9-[7-(8-chloro-1-naphthyl)-2-[[(2S)-1-methylpyrrolidin-2-yl]methoxy]-6,8-dihydro-5H-pyrido[3,4-d]pyrimidin-4-yl]-1,3,9-triazaspiro[4.5]decane-2,4-dione] | 101 | 34 | 38 |  | 4890 | 2880 | 
